Experiment: SNAP/E2As dry storage stability study
Type: physicochemical
Conditions: SNAP doped in E2As polymer
Description: The stability of SNAP doped in the E2As polymer during dry storage was also evaluated. SNAP incorporated in E2As can potentially undergo thermal or photochemical decomposition during storage, thus limiting the available NO release capacity at the time of use. Therefore, 10 wt % SNAP/E2As films were stored with desiccant in the freezer in the dark, dry in the dark or in ambient light with desiccant at room temperature, and dry in the dark with desiccant at 37° C. and 50° C. These stability studies were conducted in a similar manner as the cumulative NO release experiments, where films were dissolved in DMAc to determine the amount of SNAP remaining in the polymer at various time points (as described herein). […] After 2 months, for example, the 10 wt % SNAP films stored in the freezer (−20° C.) in the dark maintain about 96% of the initial SNAP species, compared to 89% for films stored at room temperature and 82% for films stored at 37° C. (see FIG. 8). […]
SNAP/E2As films (consisting of 10 wt % SNAP) were placed under the following conditions in vials with desiccant: room temperature with ambient light, room temperature in dark, 37° C. in dark, and in the freezer (−20° C.) in dark. At various time points over a 4 month period, films were dissolved in DMAc, and the UV-Vis spectra was recorded to determine the % SNAP remaining in the film, as compared to the initial 10 wt % SNAP.

Time for which SNAP is stable in the Elast-Eon E2As polymer: at least 4 months
Compound: CC(=O)N[C@H](C(=O)O)C(C)(C)SN=O (racemic) [SNAP, S-nitroso-N-acetylpenicillamine]

Reference: patent publication US20150366831A1, “THROMBORESISTANT/BACTERICIDAL S-NITROSO-N-[…] (SNAP)-DOPED NITRIC OXIDE RELEASE POLYMERS WITH ENHANCED STABILITY” (THE REGENTS OF THE UNIVERSITY OF MICHIGNA, priority 2013, published 2015)
